In patent US20240197704A1, “TREATMENT METHODS AND CO[…]” (Johns Hopkins University, priority 2021, published 2024):
Entries after “also recorded” stand apart in the source; their conditions may differ.

How the values were obtained:
[1] = test system: patient with pathogenic SYNGAP1 variant; experiment: VB-MAPP assessment for verbal and social skills (case study); assay type: in vivo, human; design: key to VB-MAPP Communication: Manding / VB-MAPP Communication: Pointing/gesturing to preferred items / VB-MAPP Communication: Listener Responding-reinforcing/preferred items / VB-MAPP Communication: PECS-Phase 1 / VB-MAPP Cognitive: Motor imitation / VB-MAPP Cognitive: Receptive commands / VB-MAPP Social: Responds to name / VB-MAPP Social: Parallel play / VB-MAPP Social: Independent play / VB-MAPP Health: Feeding / VB-MAPP Behavior: Functional Communication training / VB-MAPP Behavior: Waiting: ↑ = improvement in skill from prior assessment; ↓ = worsening in skill from prior assessment
Protocol: (§1) A […] […] daughter with pathogenic SYNGAP1 variant was trialed on low doses of PMP.
(§2) Clinical data from physician's clinic notes; genetic testing reports; developmental scores from occupational therapy, physical therapy, speech and language therapy evaluations; and applied behavioral analysis (ABA) reports were reviewed.
(§3) Low-dose PMP at 0.2 mg every night was started when they were 25 months of age. […] The Verbal Behavior Milestones Assessment and Placement Program (VB-MAPP) which is an assessment and skills-tracking system to assess the language, learning and social skills of children with autism or other developmental disabilities was used to evaluate their language and other related social skills. […] Patients' baseline VB-MAPP score […] (prior to starting PMP) was 7/45, which improved to 10/45 at 3 months post PMP and then to 17.5/45 at 10 and 13 months post PMP with 37.2% of developmental goals mastered. A follow-up overnight EEG was done […]. […] Multifocal epileptiform discharges, which were rarely observed in their prior EEGs, were noted over the temporal and central head regions bilaterally and occurred independently. At times the centro-temporal discharges occurred synchronously. These discharges were most prevalent in the N2 sleep, which increased in prevalence in subsequent N2 sleep cycles (FIG. 3). Finally, similar to dysregulated gamma seen during behavioral transition points from wake to NREM sleep in Syngap1^+/− mice, we also observed gamma dysregulation in our patient's pre-PMP EEG, where gamma power was increased during NREM when transitioning from REM and, therefore, presenting a positive slope (FIG. 4).

[2] = test system: patient with pathogenic SYNGAP1 variant; experiment: Case study of low-dose PMP: tolerability, therapy evaluations, sleep, clinical seizures; assay type: in vivo, human
Protocol: as §1
The child has now been on low-dose PMP (<2 mg daily) for over one year. We here discuss the safety profile, changes in the electroencephalographic (EEG) features and clinical features, especially in the developmental profile and sleep pre-and-post PMP. We hypothesize that PMP at doses lower than typically used as an antiseizure medication will be safe in patients with SYNGAP1-DEE and help normalize sleep and behavioral disorders. Almost 50% of SYNGAP1-DEE related epilepsies are refractory to treatment from the very onset and currently very few children are prescribed PMP even for seizure control such that only 1 of 57 patients in a cohort study was documented to have been on it(3).
as §2, §3

[3] = test system: patient with pathogenic SYNGAP1 variant; experiment: EEG, hypnogram and quantitative EEG analysis pre- and post-PMP (case study); assay type: in vivo, human
Protocol: EEGs used for analysis were recorded with a 10-20 electrode placement system. EEGs were reviewed in Persyst (version 14, Persyst Development Corporation, Prescott, AZ). Long-duration continuous EEGs (≥16 h) that included awake and sleep states were reviewed in non-overlapping 10-second epochs. Each epoch was analyzed for the presence or absence of abnormalities and were given a binary score (1=present, 0=absent). The findings that were scored were abnormal slowing (generalized or focal, FIGS. 3A, B) and epileptiform discharges (generalized or focal, FIGS. 3C,D).
In order to characterize and quantify the clustered nature of spikes, hierarchical clustering analysis was implemented. Hierarchical clustering analysis groups data points based on Euclidean distance and the size of clusters were determined by the clustering coefficient. Average number of spike events in a cluster was computed for a sequence of increasing clustering coefficients, and the progressions for spike subtypes were compared. The rate at which the average spike events increased with respect to clustering coefficient and the size characterized the clustered nature of spike events.
Sleep stages were manually scored in 10 second epochs. FFT was applied to 10 second epochs in Sirenia Sleep software (Pinnacle Tech. Inc, Kansas USA) for further EEG analysis. […] To analyze the presence of similar gamma dysregulation in REM and NREM transition points, linear regression analysis was done on 10 min segment of the REM to NREM transition point

[4] = test system: juvenile HET+/- (Syngap1+/-) mice; experiment: 24 h vEEG quantitative EEG (gamma slope, delta power), with or without 6 h sleep deprivation; assay type: in vivo; conditions: for delta power during NREM: one-way ANOVA
Protocol: (§4) 24 h tethered vEEG recording was performed for Het+/− mice and their age- and sex matched WT littermates at P21-P30, followed by telemetric vEEG for 24 h with 6 h SD at P35. Quantitative EEG (qEEG) analysis included the frequency bands: delta (0.5-4.0 Hz), theta(5.5-8.0 Hz), alpha (8.0-13.0 Hz), beta (13.0-30 Hz), and gamma (35-50 Hz). Linear regression of gamma frequency power during transition states from wake to sleep was quantified. Spike frequency over 24 h EEG was scored by a blind reviewer based on previously published parameters. The effect of low-dose PMP (2 mg/kg, IP, BD), an AMPA receptor antagonist, on these potential qEEG biomarkers was investigated. Additionally, movement analysis was performed using infrared cameras to trace fast-active movements between 5 am-7 am. 24 h telemetric vEEG was recorded during marble burying and novel object behavioral tests.

[5] = test system: juvenile HET+/- (Syngap1+/-) mice; experiment: Movement analysis of fast-active events with infrared cameras; assay type: in vivo; conditions: 5-7 am, dark cycle; HET+/- with low-dose PMP vs WT+/+
Protocol: as §4

[6] = test system: juvenile HET+/- (Syngap1+/-) mice; experiment: Spike frequency over 24 h EEG; assay type: in vivo; conditions: low-dose PMP
Protocol: as §4

PV+ interneurons = experiment: AMPA insertion and hyperexcitable phenotype in SynGAP1 mice; assay type: in vivo; conditions: low dose
Syngap1+/- mice = conditions: cited from earlier work
[7] = 3 months post PMP (dose 0.2 mg)
[8] = 10 months post PMP (dose 0.3 mg)
[9] = 6 months post-initiation, once daily low-dose PMP at bedtime

N#Cc1ccccc1-c1cc(-c2ccccn2)cn(-c2ccccc2)c1=O [PMP, 3-(2-cyanophenyl)-5-(2-pyridyl)-1-phenyl-1,2-dihydropyridin-2-one]
VB-MAPP Behavior: Functional Communication training [1, 7]: ↑
VB-MAPP Behavior: Waiting [1, 7]: ↑
VB-MAPP Cognitive: Motor imitation [1, 7]: ↑
VB-MAPP Cognitive: Receptive commands [1, 7]: ↑
VB-MAPP Communication: Listener Responding-reinforcing/preferred items [1, 7]: ↑
VB-MAPP Communication: Manding [1, 7]: ↑
VB-MAPP Communication: PECS-Phase 1 [1, 7]: ↑
VB-MAPP Communication: Pointing/gesturing to preferred items [1, 7]: ↑
VB-MAPP Health: Feeding [1, 7]: ↑
VB-MAPP Social: Independent play [1, 7]: ↑
VB-MAPP Social: Parallel play [1, 7]: ↑
VB-MAPP Social: Responds to name [1, 7]: ↑
VB-MAPP score ([1]; 3 months post PMP, baseline prior to PMP 7/45): 10/45
developmental goals mastered ([1]; 10 and 13 months post PMP): 37.2%
VB-MAPP Behavior: Functional Communication training [1, 8]: ↑
VB-MAPP Behavior: Waiting [1, 8]: ↑
VB-MAPP Cognitive: Motor imitation [1, 8]: ↑
VB-MAPP Cognitive: Receptive commands [1, 8]: ↑
VB-MAPP Communication: Listener Responding-reinforcing/preferred items [1, 8]: ↓
VB-MAPP Communication: Manding [1, 8]: ↓
VB-MAPP Communication: PECS-Phase 1 [1, 8]: ↑
VB-MAPP Communication: Pointing/gesturing to preferred items [1, 8]: ↑
VB-MAPP Health: Feeding [1, 8]: ↑
VB-MAPP Social: Independent play [1, 8]: ↑
VB-MAPP Social: Parallel play [1, 8]: ↑
VB-MAPP Social: Responds to name [1, 8]: ↑
tolerability ([2]; 1.5 mg daily at bed-time): tolerating it well
fine and visual motor skills (occupational therapy evaluation) [2, 9]: improvement in their fine and visual motor skills
independent walking [2, 9]: started walking independently
tone and strength (physical therapy evaluation) [2, 9]: significant improvements in their tone and strength
control of clinical seizures ([2]; low dose PMP): not helpful in controlling their clinical seizures
motor, cognition, communication, social and behavior domains ([2]; low doses 0.2 mg->0.3 mg per day at bedtime): significant improvements
tolerability / side effects ([2]; low-dose PMP 0.2 mg, then 0.3 mg every night, started): tolerated the PMP well without any side effects; also recorded: without significant side-effects
sleep quality (parent report) ([2]; once daily low-dose PMP at bedtime): improvement in sleep quality with fewer night time awakenings
prevalence of occipital intermittent rhythmic delta activity (OIRDA) ([3]; follow-up overnight EEG, post-PMP vs pre-PMP, wake and REM sleep): overall decrease in the prevalence of the OIRDA; also recorded: significantly reduced post-PMP
effect on epileptiform discharges ([3]; low-dose PMP): did not have any significant effect on the epileptiform discharges
prevalence of focal epileptiform discharges ([3]; post PMP vs pre PMP EEG): more prevalent post PMP compared to pre PMP
gamma dysregulation: gamma slope at REM to NREM transitions ([3]; post-PMP EEG vs pre-PMP EEG, same patient): significantly alleviated; also recorded: significantly rescued
delta power during NREM ([4]; 24 h baseline vEEG, all groups incl. HET+/- PMP): did not show notable statistical significance across all groups
delta power during NREM ([4]; 24 h vEEG with 6 h SD, all groups): did not show notable statistical significance across all groups
gamma slope at behavioral transition points, wake to sleep ([4]; low-dose PMP 2 mg/kg, IP, BD, juvenile HET+/-, paired t-test p<0.05): significantly reduced the gamma slope and rescued the gamma homeostasis
gamma slope at sleep transition points after 6 h SD ([4]; low-dose PMP 2 mg/kg, IP, sleep deprived HET+/-, paired t-test p<0.05): rescued gamma homeostasis by decreasing the most dominant slope
level of fast active events (hyperactivity) [5]: this relation was lost after the low-dose PMP administration
cortical spike frequency [6]: reduced spike frequency in high spiking HET^+/− mice however group data was not statistically significant
excessive AMPA insertion and hyperexcitable phenotype (PV+ interneurons): rescue the excessive AMPA insertion and hyperexcitable phenotype
gamma dysregulation (Syngap1+/- mice; PMP-treated Syngap1+/- mice): significant rescue of the gamma dysregulation
interictal spikes suppression (Syngap1+/- mice; epileptic mice, low dose): weaker effect on interictal spikes suppression
